# Assay results published in ChEMBL document CHEMBL3822355, “Synthesis and evaluation of substituted 4-(N-benzylamino)cinnamate esters as potential anti-cancer agents and HIV-1 integrase inhibitors” (Bioorg Med Chem Lett, 2016).
# Experiments:
# [1] = test system: HeLa; experiment: Anti-cancer activity against human HeLa cells assessed as reduction in cell viability after 72 hrs by WST-1 assay; assay type: functional, cell-based
# [2] = Cytotoxicity against HEK293 cells assessed as cell viability at 100 uM after 48 hrs by resazurin assay; assay type: cell-based; details: human, read-out: Activity
# [3] = test system: MDA-MB-231; experiment: Anti-cancer activity against human MDA-MB-231 cells assessed as reduction in cell viability after 72 hrs by WST-1 assay; assay type: functional, cell-based; details: MDA-MB-231, 72 h
Structure (SMILES),IC50 [1] [µM],"viability at 48 h, 100 µM [2] [%]",IC50 [3] [µM]
CC(=O)O[C@H]1C(=O)[C@@]2(C)[C@H]([C@H](OC(=O)c3ccccc3)[C@]3(O)C[C@H](OC(=O)[C@H](O)[C@@H](NC(=O)c4ccccc4)c4ccccc4)C(C)=C1C3(C)C)[C@]1(OC(C)=O)CO[C@@H]1C[C@@H]2O [PACLITAXEL],0.0199,,
COC(=O)/C=C/c1ccc(NCc2cc(Br)cc(Br)c2O)cc1,35.4,114,11.5
COC(=O)/C=C/c1ccc(NCc2cc([N+](=O)[O-])ccc2O)cc1,16,108,17.4
COC(=O)/C=C/c1ccc(NCc2ccc(O)c(O)c2)cc1,78.1,114,36.6
COC(=O)/C=C/c1ccc(NCc2cc(Cl)ccc2O)cc1,8.56,92.4,86.4
COC(=O)/C=C/c1ccc(NCc2cccc(OC)c2O)cc1,3.04,114,73.7
COC(=O)/C=C/c1ccc(NCc2cc(Cl)cc(Cl)c2O)cc1,25.9,107,9.61
COC(=O)/C=C/c1ccc(NCc2cc(Br)ccc2O)cc1,7.82,98.1,109
COC(=O)/C=C/c1ccc(NCc2ccccc2O)cc1,7.17,94.4,31.7
COC(=O)/C=C/c1ccc(NCc2cccc(O)c2O)cc1,68.2,82.3,32.6
